Data published in patent US20120258938A1, “Enzymatic Production or Chemical Synthesis and Uses for 5,7-Dienes and UVB Conversion Products Thereof” (priority 2008, published 2012).

How the values were obtained:
Col1A1 mRNA = test: Real time RT PCR Col1A1 mRNA, TGF-b1 stimulated skin fibroblasts; type: cell-based; settings: human skin fibroblasts
Description: (§1) Additional studies using human skin fibroblasts were performed employing a type I collagen specific ELISA Chondrex, and real time RT PCR to quantitate type I collagen protein and Col1A1 mRNA expression in culture of human fibroblast stimulated by TGF-b1 in the presence and absence of 17,20S(OH)2pD3 and/or 20(OH)D3. These studies confirmed that Type I collagen protein production that was induced by TGF-b1 and that Col1A1 mRNA that was induced by TGF-b1 were suppressed by these analogues (FIGS. 44A-44B).

type I collagen = test: Type I collagen ELISA, TGF-b1 stimulated skin fibroblasts; type: cell-based; settings: human skin fibroblasts
Description: as §1

Human dermal fibroblasts = test: TGF-b1 induced collagen protein production by dermal fibroblasts; type: cell-based; settings: collagenase sensitive protein, [3H]-proline
Description: Human dermal fibroblasts grown from explant skin cultures at less than 10 subpassages were plated at 5×10^4 cells per well in 24 well Costar tissue culture plates and were grown to confluency. Complete MEM was then changed to serum free Complete MEM without non-essential amino acids. After 24 hours, culture medium was changed (450 μl/well) to the same and secosteroids listed in Table 14 were added in 10 μl absolute alcohol (ETOH) to a final concentration of 10^−9 and M, 3 replicate wells each. Vehicle control wells (n=6) contained 10 μl (ETOH). After 2 hour pre-incubation, hr TGF-b1 (R and D systems) was added to each well except ETOH wells at a final concentration of 5 ng/ml. After 48 hours of culture, plate wells were paused with 1μ Cl ^3[H]-proline. After 24 hours, culture supernatants were harvested and collagenase sensitive protein was determined as previously described (44).

[1] = system: anti-CD3 stimulated DBA/1 Lac J spleen cells; test: Cytokine/chemokine production by anti-CD3 stimulated spleen cells (Luminex); type: cell-based, mouse; settings: spleen cells + anti-CD3 (4 μg/ml) + analogue 10^−7 M, 5 days, supernatant, one mouse
Description: Vitamin D analogues were solubilzed in absolute alcohol (EtOH) and added at 1:100 dilution to cultures of spleen cells from normal DBA/1 Lac J mice (Table 13). […] Therefore, changes are not due to decreased cell viability.
Spleen cells from three normal 8 wk old female DBA/1 Lac J mice were cultured in 96 well tissue culture plates in quadruplicate at 2×10^6 cells/ml in RPMI 1640 medium containing 9% FCS with and without anti-CD3 (4 μg/ml) and with anti-CD3+10^−7M natural vitamin D analogues for 5 days after which time supernatants were harvested and subjected to cytokine multiplex on a Luminex instrument using Milliplex Mouse Kit (values are pg/ml). The general trend in changes in cytokine levels were similar for each of the mice but some produced different levels of each cytokine for each culture additions. Data from one mouse are given and bold numbers indicate those that changed from anti-CD3 stimulated culture with vitamin D analogues added. There was no significant stimulation of IL-1 g, IL-2, IL-4, IL-5, IL-7, IL-9, IL-12 p70, IL-13, IL-15, MIP-2, RANTES or TNFα with the anti-CD3 MOAB.

HaCaT keratinocytes = test: [3H]-thymidine DNA synthesis in HaCaT keratinocytes; type: cell-based, human; settings: HaCaT, 24 hrs, dose dependent
Description: HaCaT keratinocytes were plated in 96-well plates at the density of 10,000 cells/well in DMEM (Cellgro, Herndon Va.) containing 5% charcoal treated fetal bovine serum (Hyclone, Logan, Utah), 1% antibiotic solution (PSA, Sigma, St. Louis, […].). Next day, media were changed and vehicle (ethanol) or secosteroids added. Cells were incubated with compounds for 48 hours. [^3H]-thymidine (Amersham Biosciences, Picataway, N.Y.) was added to the final concentration of 1 μCi/mL medium for last 12 hours of incubation. Media were then discarded, cells detached with trypsin and harvested on a glass fiber filter (Packard, Meriden, Calif.). Radioactivity was measured with a beta counter (Direct Beta-Counter Matrix 9600; Packard).
To measure DNA synthesis, keratinocytes, melanoma or prostate cancer cells were plated in 96-well plates. After overnight incubation tested compounds were added to the medium to achieve final concentrations 10^−7-10^−10 [M]. 100 μl of medium per well containing vitamin D3 compound was added to the cells. After 36 hours of incubation [3H]-thymidine (specific activity 88.0 Ci/mmol; Amersham Biosciences, Picataway, N.Y., USA) was added at 1 μCi/mL medium. After 12 hours, media were discarded, cells detached with trypsin and harvested on a glass fiber filter (Packard, Meriden, Calif., USA). 3H-radioactivity was measured with a beta counter (Direct Beta-Counter Matrix 9600; Packard).
HaCaT keratinocytes were plated out in 24-well plates, 50,000 cells/well. […] After 4 h media were discarded, cells washed with cold phosphate-buffered saline and incubated in 10% trichloroacetic acid for 30 min. Cells were washed again with phosphate-buffered saline, 100 μl 1.0 M NaOH was added to each well and plates incubated for 30 min at 30° C. The supernatant was collected and the ^3H-radioactivity measured by scintillation counting using a Direct Beta-Counter Matrix 9600 (Packard). The [^3H]-thymidine incorporation into DNA was measured separately for each well and the results entered into the calculation as the mean of 6 wells for each condition in a series of six experiments (n=36). Data were analyzed with GraphPad Prizm Version 4.0 (GraphPad Software Inc., San Diego, Calif., USA) using t tests. Differences were considered significant when p<0.05.

[2] = system: AbC1 hamster melanoma cells; test: Soft agar colony formation, AbC1 melanoma; type: cell-based; settings: AbC1, 3 weeks
Description: Growth and survival of prostate cancer cells (PC3) and melanoma cells SKMEL 188 and AbC1 was determined by following their ability to form colonies in soft agar. Cells growing in monolayer culture were trypsinized and resuspended (1,000 cells/well) in 0.25 ml medium containing 0.4% agarose and 5% charcoal stripped serum (HyClone).
Cell suspensions were added to 0.8% agar layer in 24 well plates. Compounds were added from ethanol stocks (100 μM) to final concentrations of 0.1 nM or 10 nM, in 100 μL media. Each condition was tested in quadruplicate. An ethanol solvent control (amount of ethanol equivalent to test) as well as a media-only control was included in the assay. […] […] Colonies were then counted under the microscope and number of units was calculated as number of colonies formed divided by the number of cells seeded×100.

[3] = system: K562 human chronic myeloid leukemia cells; test: Erythroid differentiation of K562 cells; type: cell-based; settings: 10^-7 M, 7 days
Description: (§2) K562 human chronic myeloid leukemia (erythroleukemia) and MEL mouse erytholeukemia cells were cultured in RPMI 1640 containing 10% FBS and treated with the drugs at concentrations 0.1 μM. A 0.1% ethanol (EtOH) or 2% DMSO were used as negative or positive control, respectively to estimate the vehicle effect and the ability of the cells to differentiate. Media were exchanged every 72 h and drugs added every day. Growth of cultures was estimated by counting number of viable cells (trypan blue negative cells) as described previously.
To estimate erythroid differentiation (production of hemoglobin), first the number of benzidine positive cells was evaluated after 2 and 7 days in culture. Cells were centrifuged and washed four times with PBS and resuspended in 1 mL of fresh PBS. For hemoglobin determination, a benzidine staining solution was freshly prepared by mixing one part of 30% hydrogen peroxide, one part of base stock solution of 3% benzidine in 90% acetic acid, and 5 parts of water. The solution was diluted 1:10 with the cell suspension and aliquoted in 4 wells in 24-well plate (250 μl each). After 10 min of incubation at RT benzidine-positive cells were counted under the microscope with a minimum of 200 cells scored.
Second, to define spectrophotometrically relative content of hemoglobin, equal number of cells (7×106) were washed with cold PBS and lysed for 20 min in 100 μL of lysis buffer (0.2% Triton X-100 in […] potassium phosphate buffer, pH 7.8). The lysates were centrifuged for 15 min at 1500 r.p.m. and 100 μL of the supernatant was incubated with 2 mL of benzidine solution (5 mg/mL in glacial acetic acid) and 2 ml 30% H2O2 for 10 min increases in comparison with the level of hemoglobin in mock-induced K562 or MEL cells.

[4] = system: SKMEL-188 human melanoma cells; test: MTT cell viability, SKMEL-188; type: cell-based; settings: SKMEL-188, 48 hrs, dose dependent
Description: MTT test were performed. Briefly, the cells were seeded in 96-well plate. Following 24, 48, 72 or 96 h incubation, MTT (5 mg/mL in PBS, Promega, Madison, Wis.) was added and the plates were incubated at 37° C. in 5% CO2 for 4 h. Subsequently, medium was discarded, acid isopropanol was added, plates were incubated for 30 min with continuous shaking and absorbance was measured at 570 nm with a plate reader (BIO-RAD Laboratories, Hercules, Calif.).

[5] = system: K562 human chronic myeloid leukemia cells; test: Viable cell count, K562 cells; type: cell-based; settings: 10^-7 M, 7 days
Description: as §2

[6] = system: mouse erytholeukemia cells (Mel); test: Viable cell count, MEL cells; type: cell-based; settings: 10^-7 M, 7 days
Description: as §2

[7] = system: HL-60 human promyelocytic leukemia cells; test: Monocytic differentiation (NBT), HL-60; type: cell-based; settings: HL-60, 0.1 μM
Description: (§3) HL-60 human promyelocytic and U937 promonocytic leukemia cells were treated with the drugs at 0.1 μM or vehicle (negative control or 12-O-tetradecanoylphorbol-13-acetate (TPA) (positive control). Media were changed every 72 h and test substances added fresh every day. Differentiation toward monocytes-like morphology and NBT-reduction has been assessed after 5 and 7 days. Cells (2×106) were washed with PBS four times and resuspended in 200 μL of NBT solution (4 mg/mL) in water. After the addition of 200 ul of TPA solution (2 ug/ml) in PBS cells were incubated at 37° C. for 60 min in 24-well plates. Cell differentiation was assessed by intracellular blue formazan deposits. The NBT positive and negative cells were scored under light microscopy examination (40×) with a minimum of 200 cells scored.
(§4) For spectrophotometric analysis the cells were washed twice with buffer containing cold bovine serum albumin solution (17 mg/mL BSA, 137 mmol/L, NaCl, 5 mmol/L, KCl, 0.8 mmol/L, MgSO4, […], HEPES, pH7.4) to remove unreacted NBT, and the insoluble formazan deposits in the resulting pellet were solubilized in 1 mL of a mixture containing 90% DMSO, 0.1% SDS and 0.01 mmol/L NaOH by vigorous vortexing. The samples were centrifuged 5 min at 1500 g to remove the cellular debris, and then the absorbance of supernatants was measured at 715 nm. Data are expressed as change in A715/106 cells.

[8] = system: U937 promonocytic leukemia cells; test: Monocytic differentiation (NBT), U937; type: cell-based, human; settings: U937, 0.1 μM
Description: as §3, §4

human CYP27B1 = human CYP27B1 (Homo sapiens, UniProt O15528); test: Metabolism by CYP27B1 in phospholipid vesicles; type: in vitro ADME; settings: up to 10 min
Description: (§5) Adrenodoxin was added last to initiate the reaction.
(§6) Products and remaining substrate were extracted with dichloromethane, and measured by reverse phase HPLC as described before (12, 13b).

bovine CYP11A1 = bovine CYP11A1 (Bos taurus, UniProt P00189); test: Metabolism by CYP11A1 (P450scc) in phospholipid vesicles; type: in vitro ADME; settings: first 2 min of incubation
Description: as §5, §6

Chain of bovine CYP11A1 (P00189 40-520): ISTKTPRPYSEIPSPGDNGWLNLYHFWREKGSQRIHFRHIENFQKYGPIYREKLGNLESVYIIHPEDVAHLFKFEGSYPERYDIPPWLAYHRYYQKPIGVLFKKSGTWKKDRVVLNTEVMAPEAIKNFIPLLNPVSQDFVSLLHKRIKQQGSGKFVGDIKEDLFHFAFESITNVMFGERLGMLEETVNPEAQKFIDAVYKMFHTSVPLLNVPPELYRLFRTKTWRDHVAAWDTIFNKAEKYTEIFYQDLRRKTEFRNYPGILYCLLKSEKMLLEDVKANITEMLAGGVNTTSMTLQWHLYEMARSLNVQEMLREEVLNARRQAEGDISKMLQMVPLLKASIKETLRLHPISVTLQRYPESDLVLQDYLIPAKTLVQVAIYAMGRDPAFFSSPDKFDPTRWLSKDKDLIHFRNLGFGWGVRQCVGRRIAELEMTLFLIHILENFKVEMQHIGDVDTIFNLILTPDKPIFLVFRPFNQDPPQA
Chain of human CYP27B1 (O15528 whole entry): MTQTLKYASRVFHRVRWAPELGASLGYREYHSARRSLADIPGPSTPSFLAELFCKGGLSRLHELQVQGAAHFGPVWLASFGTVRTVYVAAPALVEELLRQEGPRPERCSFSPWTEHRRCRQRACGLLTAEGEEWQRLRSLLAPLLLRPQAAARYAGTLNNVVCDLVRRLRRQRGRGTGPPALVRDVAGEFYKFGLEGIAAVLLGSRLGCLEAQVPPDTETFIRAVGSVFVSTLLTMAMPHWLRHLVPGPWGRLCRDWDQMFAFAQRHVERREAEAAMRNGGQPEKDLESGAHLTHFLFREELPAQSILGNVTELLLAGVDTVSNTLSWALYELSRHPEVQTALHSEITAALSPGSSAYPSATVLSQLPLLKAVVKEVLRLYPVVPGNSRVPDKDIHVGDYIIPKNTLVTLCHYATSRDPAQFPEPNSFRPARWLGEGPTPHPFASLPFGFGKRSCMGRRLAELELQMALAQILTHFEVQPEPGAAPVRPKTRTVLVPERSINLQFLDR

SMILES: C=C1CC[C@H](O)C/C1=C/C=C1\CCC[C@@]2(C)[C@H]1CC[C@]2(O)[C@H](C)O [17,20S(OH)2pD3, (5Z,7E)-(20S)-9,10-secopregna-5,7,10(19)-triene-3β,17α,20-triol]
- TGF-b1 induced Col1A1 mRNA (Col1A1 mRNA): suppressed
- TGF-b1 induced Type I collagen protein production (ELISA) (type I collagen): suppressed
- TGF-b1 induced collagen protein production (Human dermal fibroblasts): inhibited TGF-b1 induced collagen protein production
- G-CSF [1]: 12 pg/mL
- GM-CSF [1]: 41 pg/mL
- IFNγ [1]: 0 pg/mL
- IL-1α [1]: 4 pg/mL
- IL-6 [1]: 13 pg/mL
- IL-10 [1]: 16 pg/mL
- IL-17 [1]: 111 pg/mL
- IP-10 [1]: 6 pg/mL
- KC [1]: 5 pg/mL
- MCP-1 [1]: 102 pg/mL

SMILES: C=C1CC[C@H](O)C/C1=C/C=C1\CCC[C@]2(C)[C@@H](C(C)O)CC[C@@H]12 (stereo partly drawn) [20OH pD3, (5Z,7E)-9,10-secopregna-5,7,10(19)-triene-3β,20-diol]
- proliferation (DNA synthesis) (HaCaT keratinocytes): inhibit proliferation
- growth on soft agar (colonies greater than 0.2 and 0.5 mm) [2]: inhibit the growth on soft agar
- differentiation of K562 cells [3]: induce differentiation
- proliferation (MTT test) [4]: inhibit proliferation
- proliferation of K562 cells [5]: inhibit proliferation
- proliferation of mouse erytholeukemia cells (Mel) [6]: inhibit proliferation

SMILES: CC(O)[C@H]1CC[C@H]2C3=CC=C4C[C@@H](O)CC[C@@]4(C)[C@@H]3CC[C@]12C (stereo partly drawn) [20OH pL3, 3β,20-dihydroxy-9β,10α-pregna-5,7-diene]
- proliferation (DNA synthesis) (HaCaT keratinocytes): inhibit proliferation
- growth on soft agar (colonies greater than 0.2 and 0.5 mm) [2]: inhibit the growth on soft agar
- monocytic differentiation (NBT staining) [7]: induce monocytic differention
- differentiation of K562 cells [3]: induce differentiation
- monocytic differentiation (NBT staining) [8]: induce monocytic differention
- proliferation (MTT test) [4]: inhibit proliferation
- proliferation of K562 cells [5]: inhibit proliferation
- proliferation of mouse erytholeukemia cells (Mel) [6]: inhibit proliferation

SMILES: C=C1CC[C@H](O)C/C1=C/C=C1\CCC[C@@]2(C)[C@H]1CC[C@@H]2[C@@](C)(O)CCCC(C)C [20S(OH)D3, (5Z,7E)-9,10-secocholesta-5,7,10(19)-triene-3β,20S-diol]
- metabolism by CYP27B1 (human CYP27B1): metabolized to a single product at comparable initial rates
- substrate consumed (bovine CYP11A1): 13%
